Test results from patent US20220306603A1, “TARGETING DNA REPAIR IN TUMOR CELLS VIA INHIBITION OF ERCC1-XPF” (The Governors of the University of Alberta, priority 2019, published 2022).
pIC50: −log10 of the molar value. “Also recorded” adds a separate entry of the source.

What was measured:
[1] = ADME screening: cell permeability and efflux ratio; conditions: Table 8
[2] = tested on: HCT116 cells; assay: Clonogenic survival assay, UV treatment; type: cell-based, human; conditions: 254 nm UV 0-10 J/m^2; compound 0.5-4 μM
Description: UV treatment: HCT116 cells (100-800 cells depending on the UV dose) were plated in triplicate in 60-mm petri dishes. The cells were incubated overnight at 37° C. in a humidified atmosphere containing 5% CO2 to allow for cell attachment. […] Medium was removed again, and cells were exposed to increasing doses (0-10 J/m^2) of UV-C radiation and then incubated for a further 10 days in the presence of inhibitor at 37° C. in a 5% CO2 atmosphere to allow for colony formation. After this period plates were stained with crystal violet and colonies were counted using a Colcount instrument (Oxford Optronix, Abingdon UK). Finally, plating efficiency and surviving fraction were calculated.

[3] = target: T1, truncated ERCC1 (dERCC1) and XPF (dXPF) dimer (Homo sapiens, UniProt Q92889); assay: Micro Scale Thermophoresis of truncated ERCC1-XPF; type: binding; conditions: truncated dimer compared to individual peptides
T1 construct: XPF (dXPF, codons 667-916); made in house
T1 sequence (Q92889 667-916): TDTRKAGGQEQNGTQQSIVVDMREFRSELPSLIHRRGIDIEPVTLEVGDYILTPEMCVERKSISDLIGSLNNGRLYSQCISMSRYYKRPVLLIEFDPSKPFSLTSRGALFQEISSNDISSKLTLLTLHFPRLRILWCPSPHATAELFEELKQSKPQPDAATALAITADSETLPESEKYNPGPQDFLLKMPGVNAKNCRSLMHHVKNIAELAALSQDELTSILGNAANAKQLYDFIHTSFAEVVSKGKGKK
Excerpt: MST allows for the detection of interactions and changes in the molecular properties of biomolecules at low nanomolar concentrations. We synthesized two human recombinant truncated forms of ERCC1 (dERCC1, codons 96-297) and XPF (dXPF, codons 667-916) for this study because these peptides contain the subunit interaction domains that the inhibitor was designed to disrupt.

[4] = tested on: five CYP450 enzymes (CYP1A2, CYP2C9, CYP2C19, CYP2D6, CYP3A4-M); assay: ADME screening: CYP inhibition (five CYP450 enzymes); conditions: human
[5] = tested on: five CYP450 tested enzymes; assay: as above; conditions: Table 8
[6] = ADME screening: solubility; type: physicochemical; conditions: Table 8
[7] = target: CYP2D6 (Homo sapiens, UniProt P10635); assay: CYP450 inhibition, CYP2D6
[8] = target: T2, CYP1A2 (Homo sapiens, UniProt P05177); assay: CYP450 inhibition, CYP1A2
T2 sequence (P05177 1-516): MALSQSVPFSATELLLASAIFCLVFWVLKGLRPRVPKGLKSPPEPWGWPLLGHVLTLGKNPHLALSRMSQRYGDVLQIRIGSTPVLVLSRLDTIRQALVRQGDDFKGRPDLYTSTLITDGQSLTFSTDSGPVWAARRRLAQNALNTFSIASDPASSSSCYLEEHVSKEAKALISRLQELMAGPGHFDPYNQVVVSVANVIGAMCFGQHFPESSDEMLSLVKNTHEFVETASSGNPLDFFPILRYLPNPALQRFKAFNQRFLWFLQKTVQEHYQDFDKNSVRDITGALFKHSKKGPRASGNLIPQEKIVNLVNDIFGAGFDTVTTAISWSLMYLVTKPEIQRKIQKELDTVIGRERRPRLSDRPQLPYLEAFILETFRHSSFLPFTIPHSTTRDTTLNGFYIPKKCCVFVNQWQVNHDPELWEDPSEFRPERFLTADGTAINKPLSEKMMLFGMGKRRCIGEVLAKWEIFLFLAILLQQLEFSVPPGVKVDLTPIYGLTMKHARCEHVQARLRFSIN

[9] = tested on: HCT116 cells; assay: Clonogenic survival assay, cyclophosphamide treatment; type: cell-based, human; conditions: cyclophosphamide 0-300 μM, compound 1-4 μM
Description: Plates were incubated for another 8 days at 37° C. in a 5% CO2 atmosphere for colony formation. After this period plates were stained with crystal violet, colonies were counted, and plating efficiency and surviving fraction were calculated.

CYP2D6, sequence (P10635 whole entry): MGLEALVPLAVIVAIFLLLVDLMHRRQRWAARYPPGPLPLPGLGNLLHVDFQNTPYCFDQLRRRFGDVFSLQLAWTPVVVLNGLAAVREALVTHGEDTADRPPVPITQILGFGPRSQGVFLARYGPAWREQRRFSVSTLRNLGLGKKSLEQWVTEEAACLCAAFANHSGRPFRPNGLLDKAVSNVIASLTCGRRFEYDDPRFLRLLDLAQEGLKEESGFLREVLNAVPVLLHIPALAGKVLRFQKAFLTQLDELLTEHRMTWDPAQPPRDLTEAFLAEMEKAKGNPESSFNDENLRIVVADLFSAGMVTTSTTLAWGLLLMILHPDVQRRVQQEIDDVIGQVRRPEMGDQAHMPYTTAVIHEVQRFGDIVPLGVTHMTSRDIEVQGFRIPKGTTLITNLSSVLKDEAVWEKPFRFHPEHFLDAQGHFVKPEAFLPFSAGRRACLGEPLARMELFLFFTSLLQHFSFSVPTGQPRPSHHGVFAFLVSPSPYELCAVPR

COc1ccc2nc3cc(Cl)ccc3c(Nc3ccc(O)c(CN4CCN(CCN(C)C)CC4)c3)c2c1 [Compound A4, 4-((6-Chloro-2-methoxyacridin-9-yl)amino)-2-((4-(2-(dimethylamino)ethyl)piperazin-1-yl)methyl) phenol]
Cell permeability (Mean recovery %) (in words) [1]: Low
sensitisation to UV radiation, clonogenic survival (in words) [2]: significantly reduced survival
change in thermophoresis properties (in words) [3]: induced a larger change in the thermophoresis properties of the truncated dimer
pIC50 [4]: ≤ 6.00
CVP inhibition (5 enzyme) (rating) [5]: Good
Solubility (in words) [6]: Poor
inhibition of CYP2D6 (in words) [7]: weak inhibitor
pIC50 [8]: 5.19
sensitisation to cyclophosphamide, clonogenic survival (in words) [9]: no colonies were observed; also recorded: significantly sensitized the cells to cyclophosphamide; also recorded: no colonies were detected
sensitisation to cyclophosphamide, clonogenic survival (in words) ([9]; listed as Gen A4): significantly sensitized the cells to cyclophosphamide
